# Values joined by “and” are separate entries in the source; they are usually repeats but may differ in a detail not shown here. Equal entries are not always repeated. Where two headings read alike, the source gives them in different places.
# Assays:
# Huh-7 cells = assay: Host cell confluency, Alamar Blue; assay type: cell-based, human; settings: DMSO = 100
# Protocol: (§1) In vitro inhibition of Plasmodium liver stage infection was assessed using bioluminescence data from Huh-7 cells infected with a firefly-luciferase-expressing P. berghei line, PbGFP-Luccon, in the presence of various compound concentrations. […] One day before drug treatment and infection, 10^4 Huh-7 cells/well were seeded in 96-well plates. The medium was then replaced by an infection medium (culture medium supplemented with 50 μg/mL gentamycin and 0.8 μg/mL amphotericin B) containing desired concentrations of test compounds. Fresh sporozoites recovered from salivary glands of infected female Anopheles stephensi mosquitoes were added to seeded Huh-7 cells at a 1:1 proportion, followed by centrifugation at 1700g for 5 minutes and incubation for 46 hours at 37°C under 5% CO2. Compound toxicity against Huh-7 cells was assessed by measuring […] using the Alamar Blue assay (Invitrogen). IC50 values were calculated using nonlinear regression analysis (GraphPad Prism version 9).
# [1] = system: P. berghei PbGFP-Luccon liver stage; assay: In vitro inhibition of liver stage infection of Huh-7 cells, bioluminescence; assay type: cell-based, Plasmodium berghei; settings: DMSO = 100
# Protocol: as §1
# [2] = system: P. falciparum 3D7 ABS parasites; assay: ABS parasite survival assay, 72 h, flow cytometry; assay type: cell-based; settings: Plasmodium falciparum, 3D7, ABS parasites, N = 3; read-out: IC50 3D7
# Protocol: (§2) P. falciparum ABS parasites were cultured at 3% hematocrit in human O^+ RBCs in RPMI-1640 media supplemented with 25 mM HEPES, 50 mg/L hypoxanthine, 2 mM L-glutamine, 0.21% sodium bicarbonate, 0.5% (w/v) AlbuMAXII (Invitrogen) and 10 μg/mL gentamycin. Culture flasks were kept in modular incubator chambers (Billups-Rothenberg) in a 5% O2, 5% CO2, and 90% N2 atmosphere at 37°C. Synchronized ring-stage parasites were obtained by two consecutive rounds of treatment with 5% D-sorbitol in 48-hour intervals. […] This was done by exposing cultures at 1% hematocrit and 0.3% parasitemia in 96-well plates in the presence of drugs in a two-fold 10 or 12-point serial dilution in duplicate along with drug-free controls. After a 72-hour incubation, parasite survival was assessed by flow cytometry on an iQue flow cytometer (Sartorius) using SYBR Green and MitoTracker Deep Red FM (Life Technologies) as nuclear stain and vital dye, respectively. Parasite survival was determined as a percentage relative to drug-free control. IC50 values were interpolated from log concentration versus response curves in Prism 9 (GraphPad Prism Software Inc.).
# [3] = system: P. falciparum Dd2 ABS parasites; assay: ABS parasite survival assay, 72 h, flow cytometry; assay type: cell-based; settings: Plasmodium falciparum, DD2, ABS parasites, N = 3; read-out: IC50 Dd2
# Protocol: as §2
# [4] = MTT cytotoxicity assay, 72 h; assay type: cell-based, monkey; settings: monkey, MTT, 72 h, N = 3
# Protocol: (§3) Human hepatoma (HepG2) and fibroblast-like monkey kidney cells (COS-7) were cultured in Dulbecco’s Modified Eagle Medium supplemented with 10% heat-inactivated fetal bovine serum and gentamycin (40 mg/L) at 37°C in a 5% CO2 atmosphere. Cytotoxicity of test compounds was measured by metabolic reduction of mitochondrial enzymes using the MTT assay (3-[4,5-dimethyl-thiazol-2-yl]-2,5-diphenyltetrazolium chloride). Cells were seeded at 10^5 cells/well in 96-well plates and incubated for 72 hours in the presence of a 2-fold 12-point serial dilution of drugs along with drug-free controls. After adding 15 μL of MTT (5 mg/mL) to the wells, plates were centrifuged at 317g for 5 minutes and the pellet was resuspended in isopropanol. Absorbance was measured at 570 nm (CLARIOStar, Labtech BMG). Cell viability was determined by formazan production, and was expressed as a percentage of untreated control wells.
# COS-7 cells = assay: MTT cytotoxicity assay, 72 h; assay type: cell-based, monkey
# Protocol: as §3
# HepG2 cells = assay: MTT cytotoxicity assay, 72 h; assay type: cell-based, Human
# Protocol: as §3
# [5] = MTT cytotoxicity assay, 72 h; assay type: cell-based, Human; settings: human, MTT, 72 h, N = 3
# Protocol: as §3
# [6] = system: Hz formation in ABS P. falciparum 3D7 parasites; assay: Cellular heme fractionation assay; assay type: cell-based, Plasmodium falciparum; settings: for %Hb / %Heme / %Hemozoin / Hb Fe (fg/troph) / Heme Fe (fg/troph) / Hemozoin Fe (fg/troph) / Total Fe (fg/troph): rep 1-4 and Mean
# Protocol: A heme fractionation assay was used to measure the inhibition of Hz formation in cultured ABS P. falciparum 3D7 parasites as previously described. […] Late trophozoites were harvested after 32 hours of incubation by lysing RBCs with 0.05% saponin followed by multiple washes with 1 × PBS (pH 7.5) to remove any residual traces of hemoglobin. The parasite pellet was resuspended in PBS and the total number of trophozoites isolated was quantified using flow cytometry. Contents of the trophozoite pellet were released by hypotonic lysis and sonication. After centrifugation, treatments with HEPES buffer (pH 7.4), sodium dodecyl sulfate, pyridine, and NaOH, allowed us to separate the fractions corresponding to the different heme species of interest. A microplate reader was employed to measure the UV-visible spectrum of each heme fraction as a Fe(III)heme-pyridine complex. Fractions of undigested hemoglobin, “free” heme, and Hz were quantified using a heme standard curve based on the mass of each heme-Fe species per mature trophozoite (fg/cell), obtained by dividing the total amount of each heme species by the corresponding number of parasites in that fraction as determined by flow cytometry. Statistical comparisons and analyses for trends employed Students’ t-tests (GraphPad Prism version 9).
# [7] = 0.5–3.0 × IC50 vs untreated control
structure (smiles),measurement,setting,value
COc1cc(NC(C)CCCN)c2ncccc2c1 (centres unmarked) [Primaquine],"Confluency, Mean",Huh-7 cells; 1 uM,110.92
same,"Confluency, Mean",Huh-7 cells; 10 uM,113.36
same,"Infection, Mean",[1]; 1 uM,136.53
same,"Infection, Mean",[1]; 10 uM,51.51
COc1ccc(Nc2ccnc3c(F)cc(F)cc23)cc1OC [LDT-626],IC50,[2],5500 ± 500 nM
same,IC50,[3],3200 ± 400 nM
same,CC50 at 72 h,[4]; COS-7 cells,50900 ± 22200 nM
same,SI (CC50 COS-7 / IC50 3D7),COS-7 cells,9.3
same,SI (CC50 HepG2 / IC50 3D7),HepG2 cells,9.8
same,CC50 at 72 h,[5]; HepG2 cells,53800 ± 10800 nM
COc1cc(Nc2ccnc3ccc(Br)cc23)cc(OC)c1OC [LDT-619],IC50,[2],> 5000 nM
same,IC50,[3],> 5000 nM
same,CC50 at 72 h,[4]; read-out: CC50 COS-7,3300 ± 300 nM
same,SI (CC50 COS-7 / IC50 3D7),COS-7 cells,0.7
same,SI (CC50 HepG2 / IC50 3D7),HepG2 cells,0.1
same,CC50 at 72 h,[5]; read-out: CC50 HepG2,300 ± 40 nM
COc1ccc(Nc2ccnc3ccccc23)cc1OC [LDT-618],IC50,[2],1800 ± 100 nM
same,IC50,[3],1900 ± 200 nM
same,CC50 at 72 h,[4]; COS-7 cells,> 100000 nM
same,SI (CC50 COS-7 / IC50 3D7),COS-7 cells,> 56.5
same,SI (CC50 HepG2 / IC50 3D7),HepG2 cells,16.8
same,CC50 at 72 h,[5]; HepG2 cells,29800 ± 9700 nM
"C[C@H]1Cc2c([nH]c3cc(Cl)c(F)cc23)[C@@]2(N1)C(=O)Nc1ccc(Cl)cc12 [KAE609, cipargamin]",%Hb,[6]; 0.5x,3.6542% and 7.0007% and 6.1505% and 3.0130%
same,%Heme,[6]; 0.5x,5.3042% and 5.9396% and 6.0562% and 6.0905%
same,%Hemozoin,[6]; 0.5x,91.0416% and 87.0597% and 87.7934% and 90.8965%
same,Hb Fe (fg/troph),[6]; 0.5x,2.0363 fg/troph and 3.5589 fg/troph and 3.2475 fg/troph and 1.8499 fg/troph
same,Heme Fe (fg/troph),[6]; 0.5x,2.9557 fg/troph and 3.0195 fg/troph and 3.1977 fg/troph and 3.7394 fg/troph
same,Hemozoin Fe (fg/troph),[6]; 0.5x,50.7323 fg/troph and 44.2576 fg/troph and 46.3552 fg/troph and 55.8088 fg/troph
same,Total Fe (fg/troph),[6]; 0.5x,55.72 fg/troph and 50.84 fg/troph and 52.80 fg/troph and 61.40 fg/troph
same,effect on Hz levels,[6]; [7],did not affect Hz formation
same,effect on undigested Hb,[6]; [7],subtle yet significant increment in Hb levels observed under 2 and 2.5 × IC50
same,%Hb,[6]; 1x,5.1693% and 5.1920% and 5.0902% and 5.1212%
same,%Heme,[6]; 1x,5.7735% and 5.8398% and 5.6460% and 5.8813%
same,%Hemozoin,[6]; 1x,89.0573% and 88.9682% and 89.2638% and 88.9975%
same,Hb Fe (fg/troph),[6]; 1x,2.9437 fg/troph and 3.1428 fg/troph and 2.7576 fg/troph and 3.0371 fg/troph
same,Heme Fe (fg/troph),[6]; 1x,3.2877 fg/troph and 3.5349 fg/troph and 3.0588 fg/troph and 3.4878 fg/troph
same,Hemozoin Fe (fg/troph),[6]; 1x,50.7140 fg/troph and 53.8534 fg/troph and 48.3591 fg/troph and 52.7792 fg/troph
same,%Hb,[6]; 2x,6.5332% and 6.7594% and 6.3629% and 6.9166%
same,%Heme,[6]; 2x,5.4724% and 5.9940% and 4.2854% and 5.7076%
same,%Hemozoin,[6]; 2x,87.9944% and 87.2465% and 89.3517% and 87.3758%
same,Hb Fe (fg/troph),[6]; 2x,4.0073 fg/troph and 4.4606 fg/troph and 3.7570 fg/troph and 4.7143 fg/troph
same,Heme Fe (fg/troph),[6]; 2x,3.3567 fg/troph and 3.9555 fg/troph and 2.5303 fg/troph and 3.8902 fg/troph
same,Hemozoin Fe (fg/troph),[6]; 2x,53.9742 fg/troph and 57.5747 fg/troph and 52.7581 fg/troph and 59.5545 fg/troph
same,Total Fe (fg/troph),[6]; 2x,61.34 fg/troph and 65.99 fg/troph and 59.05 fg/troph and 68.16 fg/troph
same,%Hb,[6]; 2.5x,5.1788% and 7.1992% and 6.5284% and 7.3663%
same,%Heme,[6]; 2.5x,6.6682% and 5.2565% and 5.5507% and 5.3264%
same,%Hemozoin,[6]; 2.5x,88.1530% and 87.5443% and 87.9209% and 87.3073%
same,Hb Fe (fg/troph),[6]; 2.5x,2.9541 fg/troph and 4.0082 fg/troph and 4.1259 fg/troph and 4.4913 fg/troph
same,Heme Fe (fg/troph),[6]; 2.5x,3.8037 fg/troph and 2.9266 fg/troph and 3.5080 fg/troph and 3.2476 fg/troph
same,Hemozoin Fe (fg/troph),[6]; 2.5x,50.2849 fg/troph and 48.7406 fg/troph and 55.5658 fg/troph and 53.2328 fg/troph
same,Total Fe (fg/troph),[6]; 2.5x,57.04 fg/troph and 55.68 fg/troph and 63.20 fg/troph and 60.97 fg/troph
same,%Hb,[6]; 3x,3.4597% and 3.9960% and 5.9128% and 5.9841%
same,%Heme,[6]; 3x,6.5997% and 5.1160% and 5.1737% and 5.1489%
same,%Hemozoin,[6]; 3x,89.9406% and 90.8880% and 88.9135% and 88.8671%
same,Heme Fe (fg/troph),[6]; 3x,3.6368 fg/troph and 3.2102 fg/troph and 3.3952 fg/troph and 3.4079 fg/troph
same,Hemozoin Fe (fg/troph),[6]; 3x,49.5627 fg/troph and 57.0293 fg/troph and 58.3496 fg/troph and 58.8192 fg/troph
CCOc1cc2nccc(Nc3cc(OC)c(OC)c(OC)c3)c2cc1OCC [LDT-620],IC50,[2],400 ± 50 nM
same,IC50,[3],500 ± 100 nM
same,CC50 at 72 h,[4]; COS-7 cells,2600 ± 300 nM
same,SI (CC50 COS-7 / IC50 3D7),COS-7 cells,6.3
same,SI (CC50 HepG2 / IC50 3D7),HepG2 cells,3.8
same,CC50 at 72 h,[5]; HepG2 cells,1600 ± 100 nM
COc1cc(Nc2ccnc3cc(Br)ccc23)cc(OC)c1OC [LDT-624],IC50,[2],1600 ± 700 nM
same,IC50,[3],1000 ± 200 nM
same,CC50 at 72 h,[4]; COS-7 cells,41300 ± 17200 nM
same,SI (CC50 COS-7 / IC50 3D7),COS-7 cells,26.1
same,SI (CC50 HepG2 / IC50 3D7),HepG2 cells,20.6
same,CC50 at 72 h,[5]; HepG2 cells,32500 ± 7500 nM
COc1ccc(Nc2ccnc3ccc(F)cc23)cc1OC [LDT-625],IC50,[2],3200 ± 800 nM
same,IC50,[3],2900 ± 500 nM
same,CC50 at 72 h,[4]; COS-7 cells,20400 ± 1300 nM
same,SI (CC50 COS-7 / IC50 3D7),COS-7 cells,6.2
same,SI (CC50 HepG2 / IC50 3D7),HepG2 cells,10.3
same,CC50 at 72 h,[5]; HepG2 cells,33300 ± 3800 nM
COc1cc(Nc2ccnc3ccccc23)cc(OC)c1 [LDT-621],IC50,[2],2200 ± 100 nM
same,IC50,[3],2000 ± 300 nM
same,CC50 at 72 h,[4]; COS-7 cells,6500 ± 4200 nM
same,SI (CC50 COS-7 / IC50 3D7),COS-7 cells,2.8
same,SI (CC50 HepG2 / IC50 3D7),HepG2 cells,0.2
same,CC50 at 72 h,[5]; HepG2 cells,500 ± 100 nM
COc1cccc(Nc2ccnc3ccccc23)c1 [LDT-617],IC50,[2],1800 ± 100 nM
same,IC50,[3],1900 ± 200 nM
same,CC50 at 72 h,[4]; COS-7 cells,51200 ± 6600 nM
same,SI (CC50 COS-7 / IC50 3D7),COS-7 cells,28.9
same,SI (CC50 HepG2 / IC50 3D7),HepG2 cells,23.1
same,CC50 at 72 h,[5]; HepG2 cells,40800 ± 12200 nM
COc1ccc2c(Nc3ccccc3)ccnc2c1 [LDT-622],IC50,[2],200 ± 20 nM
same,IC50,[3],400 ± 60 nM
same,CC50 at 72 h,[4]; COS-7 cells,3800 ± 700 nM
same,SI (CC50 COS-7 / IC50 3D7),COS-7 cells,17.5
same,SI (CC50 HepG2 / IC50 3D7),HepG2 cells,13.7
same,CC50 at 72 h,[5]; HepG2 cells,3000 ± 900 nM

# Reference: PMC11521309, “A novel 4-aminoquinoline chemotype with multistage antimalarial activity and lack of cross-resistance with PfCRT and PfMDR1 mutants” (PLOS Pathogens, 2024)
